Assay results reported in patent US20240197655A1 (REPUBLIC OF KOREA(MASAN NATIONAL TUBERCULOSIS HOSPITAL), priority 2021, published 2024).
Converted amounts (≈) assume the structure as drawn. Counter-ions that a name gives are not always drawn.

What was measured:
[1] = system: THP-1 cells; assay: WST-8 cell viability and LDH cytotoxicity assay; format: cell-based, human; conditions: THP-1, 24 hours, FIG. 7
Experimental: (§1) THP-1 (ATCC TIB-202) and HCT-8 (ATCC CCL-244) cells were measured in regards to cell viability and cytotoxicity of CC using a WST-8 cell viability assay kit (MediFab, S. Korea) and a CytoTox 96® non-radioactive cytotoxicity assay kit (Promega, Madison, WI, USA), respectively. Differentiated THP-1 cells (1.0×10^5 cells/well) and HCT-8 cells (2.0×10^4 cells/well) were placed in 96-well plates and incubated at 37° C. for 24 hours. Here, CC was added to the cells at different concentrations. For cell viability assay, 10 μL of the reagent (10% medium volume) was added to each well, followed by incubation for 4 hours. The resulting color was measured at 450 nm. For LDH cytotoxicity assay, 50 μL of a reagent for LDH detection was added to each well, and incubation was performed in the dark for 30 minutes. The resulting color was measured at 490 nm. In this regard, the cells treated with 1% Triton™ X-100 were used as a positive control, and those treated with DMSO were all tested negative in both experiments.

[2] = system: human colonic epithelial cells (HCT-8); assay: WST-8 cell viability and LDH cytotoxicity assay; format: cell-based; conditions: HCT-8, 24 hours, FIG. 7
Experimental: as §1

[3] = system: THP-1 cells
Experimental: (§2) THP-1 cells were treated with phorbol 12-myristate 13-acetate (PMA; Sigma-Aldrich, USA) at a final concentration of 50 nM for 40 hours. Infection with M. abscessus containing pTEC15 green fluorescence or luciferase was performed at 37° C. in the presence of 5% CO2 at a multiplicity of […] (MOI) of 2:1 for 3 hours. After extensive washing with PBS, the cells were incubated in a culture medium containing […] of gentamicin for 30 minutes and washed again with PBS. […] Macrophages were stained with SYTO 60 (Invitrogen, USA) dye at a final concentration of 5 μM at 37° C. in a 5% CO2 atmosphere for 30 minutes. On the day 4, luminescence was measured with a Synergy H1 microplate reader (Bio-Tek, USA). The fluorescence microscopic images of living cells were captured with a Lionheart™ FX automated microscope (BIO-Tek, USA). The Gen5™ 3.05 software object feature was available for identification of the cells in the imaging field.
(§3) The use of a double read assay results in dose-response curves for both inhibition for M. abscessus and cytotoxicity to THP-1 cells as determined in a same experiment. […] The cytotoxicity was determined using a SYTO 60 probe.

[4] = system: M. abscessus (ATCC 19997) under anaerobic conditions; assay: Resazurin dose-response under anaerobic non-replicating culture; format: cell-based, Mycobacterium abscessus
Experimental: In order to determine the antibiotic ability against M. abscessus (ATCC 19997) under anaerobic conditions, a bacterial culture (5×10^6 bacteria/mL) was inoculated into 5 mL of 7H9 broth (BD, 271310) supplemented with 10% OADC. The bacterial culture was placed in an anaerobic jar (BD BBLIM GasPAK™ Jar; Franklin Lakes, NJ, USA). Here, a BD BBLIM GasPAK™ anaerobic indicator (methylene blue for monitoring oxygen depletion) was used. The bacteria were cultured in cation-adjusted Mueller-Hinton broth (MH; Sigma-Aldrich, 90922) for drug susceptibility testing.
(§4) Experiments were performed in triplicates.
A comparison was made between the growth rates under aerobic, anaerobic and restored aerobic conditions in a same culture medium.

[5] = system: M. abscessus in biofilm culture; assay: Biofilm assay (Calgary Biofilm Device, MBEC Assay); format: cell-based, Mycobacterium abscessus
Experimental: The first biofilm assay system was the Calgary Biofilm Device used by Bardouniotis et al. to evaluate the bactericidal activity or minimum biofilm eradication concentration (MBEC) of a biocidal active substance against Mycobacterium phlei. In the present invention, MBEC Assay® (Innovotech, Edmonton, Canada) for MBEC measurement was used. Biofilm formation was performed as follows. […] Then, the 96-well microliter plate was covered with a 96-peg lid and incubated for 4 days. After washing, the bacteria remaining on the biofilms were removed from the wells by ultrasonication in the medium. Finally, after incubation, the adherent bacteria remaining on the biofilms with or without antibiotics were quantified with resazurin.

[6] = system: M. abscessus (ATCC 19997); assay: Resazurin (REMA) broth microdilution dose-response, aerobic culture; format: cell-based, Mycobacterium abscessus
Experimental: Three strains of M. abscessus (ATCC 19997), M. avium (ATCC 25291) and M. intracellulare (ATCC 13950) were cultured at 37° C. in Middlebrook 7H9 broth (BD, 27130) supplemented with 10% OADC (BD, 212240), 0.5% glycerol and 0.05% Tween-80.
The minimum inhibitory concentration (MIC) was determined according to the guideline by the CLSI (Clinical & Laboratory Standards Institute). The CLSI broth microdilution method recommended by MH was used with an inoculum having an OD of 0.001/ml in the exponential phase of growth.
Then, incubation was carried out at 37° C. for 3 hours, followed by adding 40 mL of 0.025% resazurin. After incubation overnight, the fluorescence of resorufin (metabolite resazurin) was measured with a Synergy H1 Hybrid Multi-Mode Reader (Bio-Tek, VT, USA). IC50 values were calculated from raw fluorescence data using Prism 5.0 software (GraphPad Inc., La Jolla, CA, USA). Experiments were performed in triplicates.

[7] = system: biofilm-forming microbes; conditions: Munoz-Egea et al.; cited from earlier work
[8] = system: M. abscessus (ATCC 19997); conditions: known value used for selecting resistant mutants; cited from earlier work
[9] = system: clarithromycin-resistant M. abscessus mutants (M. abscessus CLR-R); assay: REMA dose-response against clarithromycin-resistant mutants; format: cell-based, Mycobacterium abscessus; conditions: mutant produced in presence of 100 mg/L CLR, FIG. 3
Experimental: as §4
It was also tested to determine whether CC inhibits the growth of the drug-resistant strains produced in the present invention in the presence of high concentration (100 mg/L) CLR used for therapy against M. abscessus. […] Accordingly, CC is considered as an active drug for the treatment of CLR-resistant M. abscessus.

[10] = system: M. abscessus (lux) in THP-1 cells; format: cell-based, Mycobacterium abscessus; conditions: THP-1 infection, data not shown
Experimental: as §2, §3

Q: With CCN(CC)CCOc1ccc(C(=C(Cl)c2ccccc2)c2ccccc2)cc1 [CC, clomiphene citrate] as the compound, how does the “effect on cell viability” value [1] read?
A: The value was “no harm on the viability”.

Q: What about the “effect on cell viability” value [2] of the same compound?
A: The value was “no harm on the viability”.

Q: And the “cytotoxicity to THP-1 cells” value [3]?
A: Its value is “without cytotoxicity”.

Q: For CC[C@H]1OC(=O)[C@H](C)[C@@H](O[C@H]2C[C@@](C)(OC)[C@@H](O)[C@H](C)O2)[C@H](C)[C@@H](O[C@@H]2O[C@H](C)C[C@H](N(C)C)[C@H]2O)[C@](C)(OC)C[C@@H](C)C(=O)[C@H](C)[C@@H](O)[C@]1(C)O [CLR, clarithromycin], which IC50 ([4]; Mycobacteroides abscessus, ATCC19997, anaerobic culture conditions, FIG. 4) is on record?
A: Its IC50 is 0.0778 µg/mL (≈ 0.104 µM).

Q: And the “shift of the IC50 value, anaerobic versus aerobic” value ([4]; anaerobic vs aerobic culture)?
A: Its value is 2 fold.

Q: What about the “MBEC relative to general MIC” value ([5]; MBEC vs MIC) of the same compound?
A: Its value is 2,000 fold.

Q: What about the IC50 ([5]; Mycobacteroides abscessus, biofilm culture, FIG. 4) of the same compound?
A: The IC50 was greater than 100 µg/mL.

Q: What about the “MBEC for M. abscessus” value ([5]; biofilm) of the same compound?
A: The value was “above 100 μg”.

Q: What about the “general MIC” value [6] of the same compound?
A: Its value is 0.46 µg.

Q: What about the IC50 ([6]; Mycobacteroides abscessus, ATCC19997, aerobic culture conditions, FIG. 4) of the same compound?
A: Its IC50 is 0.046 µg/mL (≈ 0.0615 µM).

Q: And the “MBEC relative to MIC” value [7]?
A: The value was 100,000 fold.

Q: And the “known MIC value” [8]?
A: The value was 0.1 µg/mL.

Q: What about the “resistance of produced mutant to CLR” value [9] of the same compound?
A: The value was “high drug resistance”.

Q: And the “effect on intracellular bacterial replication” value [10]?
A: Its value is “prevented bacterial replication”.
